Assay results published in ChEMBL document CHEMBL1156320, “Discovery of novel (S)-alpha-phenyl-gamma-amino butanamide containing CCR5 antagonists via functionality inversion approach” (Bioorg Med Chem Lett, 2010).
Activity calls are given as the source filed them. No cut-off for these calls is given here.

What was measured:
Format in all cases: functional, cell-based
[1] = molecular target: T1, C-C chemokine receptor type 5 (Homo sapiens, UniProt P51681); assay: Antagonist activity at CCR5 receptor expressed in CHO cells assessed as inhibition of RANTES-induced […]GTPgammaS binding at 300 nM
Target sequence in this assay (P51681 whole entry, looked up): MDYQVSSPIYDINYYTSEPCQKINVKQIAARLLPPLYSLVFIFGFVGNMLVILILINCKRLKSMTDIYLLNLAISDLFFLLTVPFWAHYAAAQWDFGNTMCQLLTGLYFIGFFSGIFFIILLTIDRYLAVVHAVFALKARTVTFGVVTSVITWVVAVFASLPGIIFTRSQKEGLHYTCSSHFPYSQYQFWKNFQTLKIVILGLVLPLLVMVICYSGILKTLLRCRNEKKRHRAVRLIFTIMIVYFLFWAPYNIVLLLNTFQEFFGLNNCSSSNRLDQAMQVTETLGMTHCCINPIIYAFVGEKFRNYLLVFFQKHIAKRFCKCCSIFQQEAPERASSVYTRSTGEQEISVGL

[2] = molecular target: T1, C-C chemokine receptor type 5; assay: Antagonist activity at CCR5 receptor expressed in CHO cells assessed as inhibition of RANTES-induced […]GTPgammaS binding
[3] = molecular target: T1, C-C chemokine receptor type 5; assay: Antagonist activity at CCR5 receptor expressed in CHO cells assessed as inhibition of RANTES-induced […]GTPgammaS binding at 10 uM
Target sequence in this assay (P51681 whole entry, looked up): as above

| Structure (SMILES) | inhibition [1] [%] | also measured |
| --- | --- | --- |
| Cc1nc2cccnc2n1[C@H]1C[C@H]2CC[C@@H](C1)N2CC[C@H](C(=O)NCc1ccc(F)cc1)c1ccccc1 | 30 | IC50 [2]: 14.4 nM |
| Cc1nc2cccnc2n1[C@H]1C[C@H]2CC[C@@H](C1)N2CC[C@H](C(=O)N1C(=O)OC[C@H]1Cc1ccccc1)c1ccccc1 (stereo in doubt; 1a) | 30 | – |
| COC(=O)[C@@H](CCN1[C@@H]2CC[C@H]1C[C@H](n1nnc3cccnc31)C2)c1ccccc1 | – | C50 [2]: > 10 µM |
| Cc1nc2cccnc2n1[C@@H]1C[C@H]2CC[C@@H](C1)N2CC[C@H](COCc1ccc(F)cc1)c1ccccc1 | 42 | – |
| Cc1nc2cccnc2n1[C@H]1C[C@H]2CC[C@@H](C1)N2CC[C@H](C(=O)N1C(=O)OC[C@H]1Cc1ccccc1)c1ccccc1 (stereo in doubt; 1b) | 10 | – |
| Cc1nc2cccnc2n1[C@@H]1C[C@H]2CC[C@@H](C1)N2CC[C@H](CO)c1ccccc1 | – | inhibition [3]: inactive |
| Cc1nc2cccnc2n1[C@@H]1C[C@H]2CC[C@@H](C1)N2CC[C@H](C(=O)OCc1ccc(F)cc1)c1ccccc1 | 19 | – |
| O=C(NCc1ccc(F)cc1)[C@@H](CCN1[C@@H]2CC[C@H]1C[C@H](n1nnc3cccnc31)C2)c1ccccc1 | 1 | – |
| COC(=O)[C@@H](CCN1[C@@H]2CC[C@H]1C[C@@H](n1c(C)nc3cccnc31)C2)c1ccccc1 | 22 | IC50 [2]: 112 nM |
